Results taken from ChEMBL document CHEMBL1146787, “Novel nonpeptidic inhibitors of HIV-1 protease obtained via a new multicomponent chemistry strategy” (Bioorg Med Chem Lett, 2004).

Assays:
[1] = target: T1, Human immunodeficiency virus type 1 protease (Human immunodeficiency virus 1, UniProt Q72874); assay: Inhibitory concentration against Protease
[2] = target: T1, Human immunodeficiency virus type 1 protease; assay: Evaluated for inhibition of Protease after resynthesis and purification
[3] = target: T1, Human immunodeficiency virus type 1 protease; assay: Evaluated for inhibition of Protease from the crude plate mixture
[4] = target: T1, Human immunodeficiency virus type 1 protease; assay: Evaluated for inhibition of Protease after CLND/MS correction from the crude mixture

Compound	IC50 [1]	other results
CNC(=O)C1(C)OC(O)=C(C(C)c2ccccc2)C1=O (configuration not stated)	244 µM	
CC(C)(C)NC(=O)C1(CCc2ccccc2)OC(O)=C(c2ccc(-c3ccccc3)cc2)C1=O (configuration not stated)	27 µM	
COc1cc(CC2=C(O)C(CCc3ccccc3)(C(=O)NCC(C)(C)C)OC2=O)cc(OC)c1OC (configuration not stated)	> 1000 µM	
C[C@H](C1=C(O)C(CCc2ccccc2)(C(=O)NCc2ccc(C(C)(C)C)cc2)OC1=O)c1ccccc1 (single isomer, unassigned)	84 µM	IC50 [2]: 4.6 µM; IC50 [4]: 1.2 µM
CC(C)=CCCC(C)C1=C(O)C(C)(C(=O)NC(C)(C)C)OC1=O (configuration not stated)	151 µM	
CC(C)(C)NC(=O)C1(CCc2ccccc2)OC(O)=C(c2c[nH]c3ccccc23)C1=O (configuration not stated)	107 µM	
CNC1=C(O)C(CCc2ccccc2)(C(=O)NCC2CCCO2)OC1=O (configuration not stated)	> 1000 µM	
C[C@H](C1=C(O)[C@@](CCc2ccccc2)(C(=O)NCc2ccc(C(C)(C)C)cc2)OC1=O)c1ccccc1		IC50 [2]: 5.4 µM
CC1(C(=O)NC2CC2)OC(O)=C(CCc2ccccc2)C1=O (configuration not stated)	294 µM	
CC(C1=C(O)C(C)(C(=O)NC(C)(C)C)OC1=O)c1ccccc1 (configuration not stated)	105 µM	
CN(C(=O)OC(C)(C)C)C1=C(O)C(CCc2ccccc2)(C(=O)NCC2CCCO2)OC1=O (configuration not stated)	193 µM	
CC(C)(C)NC(=O)C1(CCc2ccccc2)OC(O)=C(c2ccc(C(C)(C)C)cc2)C1=O (configuration not stated)	17 µM	
CC(C1=C(O)OC(C(=O)NCCc2ccc(Cl)cc2)(C(C)C)C1=O)c1ccccc1 (configuration not stated)	31 µM	
CC(C1=C(O)[C@@](CCc2ccccc2)(C(=O)NCc2ccc(C(C)(C)C)cc2)OC1=O)c1ccccc1 (some centres not stated)	5 µM	
CCCCNC(=O)C1(C)OC(O)=C(CCc2ccccc2)C1=O (configuration not stated)	> 100 µM	
COc1cc(CC2=C(O)C(C)(C(=O)NC3CC3)OC2=O)cc(OC)c1OC (configuration not stated)	> 1000 µM	
CC(C)(C)NC(=O)C1(C)OC(O)=C(CCc2ccccc2)C1=O (configuration not stated)	70 µM	

The next lines start with results.

IC50 [1]	Compound	other results
1 µM	CC(C)=CCCC(C)C1=C(O)C(CCc2ccccc2)(C(=O)NC(C)(C)C)OC1=O (configuration not stated)	IC50 [2]: 1.3 µM; IC50 [3]: 15 µM; IC50 [4]: 1.3 µM
11 µM	CC(C)(C)NC(=O)C1(CCc2ccccc2)OC(O)=C(Cc2ccccc2)C1=O (configuration not stated)	
4 µM	CC(C1=C(O)C(CCc2ccccc2)(C(=O)NC(C)(C)C)OC1=O)c1ccccc1 (configuration not stated)	IC50 [2]: 2 µM; IC50 [3]: 6 µM; IC50 [4]: 4.1 µM
224 µM	COCCNC(=O)C1(C)OC(O)=C(C(C)c2ccccc2)C1=O (configuration not stated)	
47 µM	CN(C(=O)OC(C)(C)C)C1=C(O)C(CCc2ccccc2)(C(=O)NC(C)(C)C)OC1=O (configuration not stated)	
3 µM	CC(C)(C)NC(=O)C1(CCc2ccccc2)OC(O)=C(CCc2ccccc2)C1=O (configuration not stated)	
> 1000 µM	COc1cc(CC2=C(O)C(C)(C(=O)NC(C)(C)C)OC2=O)cc(OC)c1OC (configuration not stated)	
